Measurements taken from ChEMBL document CHEMBL6177990, “Fluorescence-Coupled Ubiquitination Assay as a High-Throughput Screening Strategy for Novel Cereblon Degraders” (J Med Chem, 2025).
Values belong to the compound of their own block, whether it stands above or below them. Calls of active or inactive are those of the source. The rule behind the calls is not given here.

Tests used:
[1] = PROTAC activity at human BRD4 BD1/CRBN assessed as ubiquitination level by measuring unmodified protein by […]
[2] = molecular target: T1, Protein cereblon/Chromatin remodeling regulator CECR2 (Homo sapiens) (UniProt Q9BXF3+Q96SW2); assay: PROTAC activity at human CECR2/CRBN assessed as degradation of protein by measuring unmodified protein at 20 uM by fluorescence-coupled CRBN-based ubiquitination assay
[3] = Inhibition of human BPTF BRD by HTRF assay
MV4-11 = assay: Antiproliferative activity against human MV4-11 cells assessed as cell viability measured after 6 days by CellTiter-Glo kit; assay type: functional, cell-based; conditions: MV4-11, 144 h
[4] = molecular target: Protein cereblon/Bromodomain-containing protein 9 (Homo sapiens) (UniProt Q9H8M2+Q96SW2); assay: PROTAC activity at human BRD9/CRBN in human MV4-11 cells assessed as degradation of protein at 20 uM measured after 24 hrs by immunoblotting analysis; assay type: cell-based
[5] = molecular target: T2, Protein cereblon/Nucleosome-remodeling factor subunit BPTF (Homo sapiens, UniProt Q12830+Q96SW2); assay: PROTAC activity at human BPTF/CRBN assessed as ubiquitination level by measuring unmodified protein in presence of pomalidomide by fluorescence-coupled CRBN-based ubiquitination assay
Target sequence in this assay (Q96SW2 whole entry, looked up, other chains not shown): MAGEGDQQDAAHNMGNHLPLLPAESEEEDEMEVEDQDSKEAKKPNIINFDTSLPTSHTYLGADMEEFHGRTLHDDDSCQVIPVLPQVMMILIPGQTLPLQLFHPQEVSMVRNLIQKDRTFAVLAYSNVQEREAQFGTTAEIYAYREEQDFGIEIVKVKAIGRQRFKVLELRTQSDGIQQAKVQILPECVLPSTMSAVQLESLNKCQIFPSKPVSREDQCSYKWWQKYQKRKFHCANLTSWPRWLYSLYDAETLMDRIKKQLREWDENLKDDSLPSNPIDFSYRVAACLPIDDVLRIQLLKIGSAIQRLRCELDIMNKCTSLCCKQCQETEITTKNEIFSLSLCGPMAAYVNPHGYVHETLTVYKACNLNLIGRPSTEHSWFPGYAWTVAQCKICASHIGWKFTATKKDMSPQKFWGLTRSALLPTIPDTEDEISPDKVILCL

[6] = molecular target: T2, Protein cereblon/Nucleosome-remodeling factor subunit BPTF; assay: PROTAC activity at human BPTF/CRBN in human MV4-11 cells assessed as degradation of protein pretreated with MLN4924 for 12hrs followed by measured after 24 hrs of compound treatment by immunoblotting analysis; assay type: cell-based
Target sequence in this assay (Q96SW2 whole entry, looked up, other chains not shown): as above

[7] = molecular target: T2, Protein cereblon/Nucleosome-remodeling factor subunit BPTF; assay: PROTAC activity at human BPTF/CRBN in human MV4-11 cells assessed as degradation of protein measured after 24 hrs in presence of pomalidomide by immunoblotting analysis; assay type: cell-based
Target sequence in this assay (Q96SW2 whole entry, looked up, other chains not shown): as above

[8] = molecular target: T2, Protein cereblon/Nucleosome-remodeling factor subunit BPTF; assay: PROTAC activity at human BPTF/CRBN assessed as degradation of protein by measuring unmodified protein by fluorescence-coupled CRBN-based ubiquitination assay
Target sequence in this assay (Q96SW2 whole entry, other chains not shown): as the sequence (Q96SW2 whole entry, looked up, other chains not shown) above

[9] = molecular target: T1, Protein cereblon/Chromatin remodeling regulator CECR2 (Homo sapiens); assay: PROTAC activity at human CECR2/CRBN in human MV4-11 cells assessed as degradation of protein at 20 uM measured after 24 hrs by immunoblotting analysis; assay type: cell-based
[10] = Binding affinity to human BPTF BRD assessed as dissociation constant
[11] = molecular target: T2, Protein cereblon/Nucleosome-remodeling factor subunit BPTF; assay: PROTAC activity at human BPTF/CRBN in human MV4-11 cells assessed as degradation of protein measured after 24 hrs by immunoblotting analysis; assay type: cell-based
Target sequence in this assay (Q96SW2 whole entry, looked up, other chains not shown): as above

[12] = molecular target: Protein cereblon/Histone acetyltransferase KAT2B (Homo sapiens) (UniProt Q92831+Q96SW2); assay: PROTAC activity at human PCAF/CRBN in human MV4-11 cells assessed as degradation of protein at 20 uM measured after 24 hrs by immunoblotting analysis; assay type: cell-based
[13] = molecular target: T2, Protein cereblon/Nucleosome-remodeling factor subunit BPTF; assay: PROTAC activity at human BPTF/CRBN assessed as ubiquitination level by measuring unmodified protein by fluorescence-coupled CRBN-based ubiquitination assay
Target sequence in this assay (Q96SW2 whole entry, looked up, other chains not shown): as above

[14] = molecular target: T1, Protein cereblon/Chromatin remodeling regulator CECR2 (Homo sapiens); assay: PROTAC activity at human CECR2/CRBN assessed as degradation of protein by measuring unmodified protein at 10 uM by fluorescence-coupled CRBN-based ubiquitination assay
[15] = molecular target: T2, Protein cereblon/Nucleosome-remodeling factor subunit BPTF; assay: PROTAC activity at human BPTF/CRBN in human MV4-11 cells assessed as degradation of protein at 5 uM measured after 24 hrs by immunoblotting analysis; assay type: cell-based
Target sequence in this assay (Q96SW2 whole entry, looked up, other chains not shown): as above

T1 sequence (Q96SW2 whole entry, looked up): as the sequence (Q96SW2 whole entry, looked up, other chains not shown) above
T1 sequence (Q9BXF3 whole entry, looked up): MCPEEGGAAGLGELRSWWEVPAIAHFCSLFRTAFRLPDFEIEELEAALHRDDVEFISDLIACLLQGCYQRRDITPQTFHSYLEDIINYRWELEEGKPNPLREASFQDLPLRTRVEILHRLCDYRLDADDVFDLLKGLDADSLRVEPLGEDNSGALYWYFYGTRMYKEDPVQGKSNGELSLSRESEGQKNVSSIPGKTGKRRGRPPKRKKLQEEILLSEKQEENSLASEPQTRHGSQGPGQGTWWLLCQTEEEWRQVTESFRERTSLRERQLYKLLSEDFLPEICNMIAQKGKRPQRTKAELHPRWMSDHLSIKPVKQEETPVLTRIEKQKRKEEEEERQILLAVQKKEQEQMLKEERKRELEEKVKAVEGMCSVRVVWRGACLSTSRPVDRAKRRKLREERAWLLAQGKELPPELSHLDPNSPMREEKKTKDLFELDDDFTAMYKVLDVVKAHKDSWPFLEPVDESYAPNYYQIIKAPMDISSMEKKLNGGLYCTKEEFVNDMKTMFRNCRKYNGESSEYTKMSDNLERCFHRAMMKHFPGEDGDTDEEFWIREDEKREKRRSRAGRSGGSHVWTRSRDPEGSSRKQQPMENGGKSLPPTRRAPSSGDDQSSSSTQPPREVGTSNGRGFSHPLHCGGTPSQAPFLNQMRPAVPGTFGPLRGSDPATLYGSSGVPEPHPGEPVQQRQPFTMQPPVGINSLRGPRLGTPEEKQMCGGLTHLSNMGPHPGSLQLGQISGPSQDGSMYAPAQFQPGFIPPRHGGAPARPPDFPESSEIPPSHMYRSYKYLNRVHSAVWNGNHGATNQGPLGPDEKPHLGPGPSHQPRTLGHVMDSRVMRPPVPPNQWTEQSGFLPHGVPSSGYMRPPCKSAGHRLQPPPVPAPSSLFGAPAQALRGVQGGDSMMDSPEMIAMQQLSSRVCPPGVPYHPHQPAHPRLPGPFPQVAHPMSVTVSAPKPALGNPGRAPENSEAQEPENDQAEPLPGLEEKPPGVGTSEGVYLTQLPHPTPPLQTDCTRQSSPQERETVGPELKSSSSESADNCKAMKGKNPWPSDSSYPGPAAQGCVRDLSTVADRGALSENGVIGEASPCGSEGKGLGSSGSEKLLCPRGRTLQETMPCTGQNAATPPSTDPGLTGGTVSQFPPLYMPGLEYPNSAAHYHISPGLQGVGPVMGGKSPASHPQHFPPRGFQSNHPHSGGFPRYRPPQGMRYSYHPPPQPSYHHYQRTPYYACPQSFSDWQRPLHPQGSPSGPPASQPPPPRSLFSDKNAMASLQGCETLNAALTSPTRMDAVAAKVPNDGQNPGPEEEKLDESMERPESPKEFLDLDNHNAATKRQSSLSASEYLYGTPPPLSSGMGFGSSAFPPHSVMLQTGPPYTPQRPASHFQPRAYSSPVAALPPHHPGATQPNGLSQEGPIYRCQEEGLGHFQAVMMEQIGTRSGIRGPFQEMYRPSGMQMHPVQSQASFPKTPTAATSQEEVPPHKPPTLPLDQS
Protein cereblon/Histone acetyltransferase KAT2B (Homo sapiens), sequence (Q92831 whole entry, looked up): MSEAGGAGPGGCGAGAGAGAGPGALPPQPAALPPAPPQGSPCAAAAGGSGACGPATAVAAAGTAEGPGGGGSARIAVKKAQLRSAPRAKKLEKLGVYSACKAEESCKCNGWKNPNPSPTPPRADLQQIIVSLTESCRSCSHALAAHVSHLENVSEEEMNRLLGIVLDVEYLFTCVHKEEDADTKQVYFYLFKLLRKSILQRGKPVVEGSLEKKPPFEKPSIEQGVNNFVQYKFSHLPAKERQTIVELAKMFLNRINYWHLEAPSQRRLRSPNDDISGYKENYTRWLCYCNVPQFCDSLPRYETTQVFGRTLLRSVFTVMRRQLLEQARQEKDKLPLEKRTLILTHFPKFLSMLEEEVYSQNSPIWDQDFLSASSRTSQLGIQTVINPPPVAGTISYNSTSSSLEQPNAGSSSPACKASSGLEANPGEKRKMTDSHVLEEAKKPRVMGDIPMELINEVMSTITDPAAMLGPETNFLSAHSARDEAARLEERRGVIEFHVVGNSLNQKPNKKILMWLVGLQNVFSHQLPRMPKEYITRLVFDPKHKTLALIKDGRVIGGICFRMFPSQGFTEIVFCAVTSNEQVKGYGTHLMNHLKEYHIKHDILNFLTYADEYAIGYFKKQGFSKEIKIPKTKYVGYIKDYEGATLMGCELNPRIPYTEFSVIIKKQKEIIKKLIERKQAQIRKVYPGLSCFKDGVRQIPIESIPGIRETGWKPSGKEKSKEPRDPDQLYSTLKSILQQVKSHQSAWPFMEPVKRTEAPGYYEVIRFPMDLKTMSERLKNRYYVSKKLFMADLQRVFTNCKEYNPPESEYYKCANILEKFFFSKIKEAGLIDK
Protein cereblon/Histone acetyltransferase KAT2B (Homo sapiens), sequence (Q96SW2 whole entry, looked up): as the sequence (Q96SW2 whole entry, looked up, other chains not shown) above
Protein cereblon/Bromodomain-containing protein 9 (Homo sapiens), sequence (Q96SW2 whole entry, looked up): as the sequence (Q96SW2 whole entry, looked up, other chains not shown) above
Protein cereblon/Bromodomain-containing protein 9 (Homo sapiens), sequence (Q9H8M2 whole entry, looked up): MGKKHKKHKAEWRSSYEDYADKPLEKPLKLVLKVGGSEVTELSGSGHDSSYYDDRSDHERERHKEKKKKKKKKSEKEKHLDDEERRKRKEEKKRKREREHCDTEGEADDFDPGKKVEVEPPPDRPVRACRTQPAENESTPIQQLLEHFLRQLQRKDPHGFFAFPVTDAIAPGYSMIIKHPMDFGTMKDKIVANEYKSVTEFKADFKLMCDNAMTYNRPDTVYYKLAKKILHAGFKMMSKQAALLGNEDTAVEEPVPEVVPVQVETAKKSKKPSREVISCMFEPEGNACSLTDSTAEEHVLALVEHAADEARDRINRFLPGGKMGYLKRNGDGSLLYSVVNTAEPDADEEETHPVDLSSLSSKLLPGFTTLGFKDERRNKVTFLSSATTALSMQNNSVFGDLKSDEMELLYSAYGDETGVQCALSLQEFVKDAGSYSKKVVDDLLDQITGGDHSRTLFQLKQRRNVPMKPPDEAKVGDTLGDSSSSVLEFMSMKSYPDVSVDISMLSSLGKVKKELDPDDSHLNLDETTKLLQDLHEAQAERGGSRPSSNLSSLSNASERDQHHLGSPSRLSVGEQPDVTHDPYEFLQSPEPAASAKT

IC50 [1]: 1150 nM
Compound: COC(=O)C[C@@H]1N=C(c2ccc(Cl)cc2)c2c(sc(C(=O)NCCCCCCCCNC(=O)COc3cccc4c3C(=O)N(C3CCC(=O)NC3=O)C4=O)c2C)-n2c(C)nnc21 (stereo partly specified)

IC50 [1]: 1250 nM
Compound: Cc1sc2c(c1C)C(c1ccc(Cl)cc1)=N[C@@H](CC(=O)Nc1ccc(OCCOCCOCCOCCNc3cccc4c3C(=O)N(C3CCC(=O)NC3=O)C4=O)cc1)c1nnc(C)n1-2 (stereo partly specified)

Activity [2]: inactive | IC50 [3]: 150 nM | IC50 (MV4-11): 2710 nM | Activity [4]: inactive | Activity [5]: inactive | Activity [6]: inactive | Activity [7]: inactive | DC50 [8]: 35.1 nM | Activity [9]: inactive | Kd [10]: 310 nM | Activity [11]: Dose-dependent-effect | IC50 [1]: 680 nM | Activity [12]: inactive | Activity [13]: Active
Compound: CCCNc1cc(-c2ccc(OCCCN3CCN(C(=O)COc4cccc5c4C(=O)N(C4CCC(=O)NC4=O)C5=O)CC3)c(C#N)c2)nc(S(C)(=O)=O)n1 (stereo unspecified)

Activity [14]: inactive
Compound: CCCNc1cc(-c2ccc(OCCCN3CCN(C(=O)CCCCNc4cccc5c4C(=O)N(C4CCC(=O)NC4=O)C5=O)CC3)c(C#N)c2)nc(S(C)(=O)=O)n1 (stereo unspecified)

Activity [14]: inactive
Compound: CCCNc1cc(-c2ccc(OCCCN3CCN(C(=O)CCCCCOc4cccc5c4C(=O)N(C4CCC(=O)NC4=O)C5=O)CC3)c(C#N)c2)nc(S(C)(=O)=O)n1 (stereo unspecified)

Activity [2]: Active | Activity [13]: Active
Compound: CCCNc1cc(-c2ccc(OCCCN3CCN(C(=O)C4CCN(c5cccc6c5C(=O)N(C5CCC(=O)NC5=O)C6=O)CC4)CC3)c(C#N)c2)nc(S(C)(=O)=O)n1 (stereo unspecified)

Compound: Cc1sc2c(c1C)C(c1ccc(Cl)cc1)=N[C@@H](CC(=O)NCCNc1cccc3c1C(=O)N(C1CCC(=O)NC1=O)C3=O)c1nnc(C)n1-2 (stereo partly specified)
IC50 [1]: 280 nM

Activity [15]: inactive | Activity [13]: inactive
Compound: CCCNc1cc(-c2ccc(OCCCN3CCN(C(=O)COc4cccc5c4C(=O)N(C4CCC(=O)N(C)C4=O)C5=O)CC3)c(C#N)c2)nc(S(C)(=O)=O)n1 (stereo unspecified)

Activity [2]: inactive | DC50 [8]: 44.6 nM | Activity [13]: Active
Compound: CCCNc1cc(-c2ccc(OCCCN3CCN(C(=O)C4CN(c5cccc6c5C(=O)N(C5CCC(=O)NC5=O)C6=O)C4)CC3)c(C#N)c2)nc(S(C)(=O)=O)n1 (stereo unspecified)
